The values that follow come from patent publication US7998924B2, “Compounds that bind to p185 and methods of using the same” (The Trustees of The University of Pennsylvania, priority 2001, dated 2011).

In data set [1] the target is T1, HER2 receptor (Homo sapiens, UniProt P04626).
T1 construct: Recombinant purified HER2 receptor composed of the ectodomain of HER2 fused to the Fc of human IgG; purchased Xcyte Therapeutics, Seattle, Wash; (provided by Dr. Che Law; a gift, not a catalogue product)
Description: Biacore (surface plasmon resonance) binding of peptides to immobilized HER2. From the text: Binding of AHNP has been studies by means of surface plasmon resonance (Biacore) technology. In Biacore experiments, one of the interacting molecules (termed the ligand) is immobilized on the sensor surface, and the other interactant (termed the analyte) is continuously flown over that surface in a micro-flow cell. The interaction between the ligand and the analyte are monitored using a light source that is reflected at the immobilized chip. Binding of the analyte to the immobilized ligand changes the resonance angle of the reflected light due to changes in the refractive index of the surface. The response is plotted in real time in the form of sensorgram curves. The advantage with this approach is its sensitivity, ease of use, and ability to perform experiments with few microgram quantities of proteins and peptides. In addition, the kinetic binding studies reveal association and disassociation rates of the analyte which may be more relevant for understanding the pharmacokinetics of drug-receptor interactions.
Binding experiments were performed with the surface plasmon resonance based biosensor instrument Biacore 3000 (Biacore AB, Uppsala, Sweden) at 25° C. Recombinant purified HER2 receptor composed of the ectodomain of HER2 fused to the Fc of human IgG was provided by Dr. Che Law, Xcyte Therapeutics, Seattle, Wash. Immobilization of HER2 in the sensor surface was performed following the standard amine coupling procedure according to manufacturer's instructions. Briefly, 35 pit of a solution containing 0.2M N-ethyl-N-(dimethylaminopropyl) carbodiimide (EDC) and 0.05 M N-hydroxysuccinimide (NHS) were injected at a flow rate of 5 μL/min to activate carboxyl groups on the sensor chip surface. HER2 (40 ng/mL in 10 mM NaOAc buffer, pH 5.0) was flowed over the chip surface at a flow rate of 20 μL/min until the desired level bound protein was reached. Unreacted protein was washed out and unreacted activated groups were blocked by the injection of 35 μL of 1 M ethanolamine at 5 μL/min. […] A reference surface was generated simultaneously under the same conditions but without HER2 injection and used as a blank to correct for instrument and buffer artifacts. Peptides were injected at variable concentrations at 20 μL/min flow rate and binding to the HER2 receptor immobilized on the chip was monitored in real time. Each sensorgram consists of an association phase (first 240 s), reflecting binding of the injected peptide to the receptor, followed by a dissociation phase (300 s), during which the running buffer is passed over the chip and the bound peptide is being washed off the receptor surface.
(In general: Surface plasmon resonance follows binding to a sensor surface in real time, without labels.)

The target of data set [2] is T1, HER2 receptor. Description: Biacore competition: AHNP preinjection inhibits rhumAb 4D5 binding to immobilized HER2. The method, then:
It was shown earlier that the AHNP peptide can mimic some functions of the anti-HER2/neu antibody, rhumAb 4135 in vitro and in vivo (see reference 40 below). […] To that end, injections of AHNP at variable concentrations (from 0 to 90 μM) were followed by injections of rhumAb 4135 at a constant 1 nM concentration, using the “Coinject” mode of the Biacore instrument.
Binding experiments were performed with the surface plasmon resonance based biosensor instrument Biacore 3000 (Biacore AB, Uppsala, Sweden) at 25° C. Recombinant purified HER2 receptor composed of the ectodomain of HER2 fused to the Fc of human IgG was provided by Dr. Che Law, Xcyte Therapeutics, Seattle, Wash. Immobilization of HER2 in the sensor surface was performed following the standard amine coupling procedure according to manufacturer's instructions. Briefly, 35 pit of a solution containing 0.2M N-ethyl-N-(dimethylaminopropyl) carbodiimide (EDC) and 0.05 M N-hydroxysuccinimide (NHS) were injected at a flow rate of 5 μL/min to activate carboxyl groups on the sensor chip surface. HER2 (40 ng/mL in 10 mM NaOAc buffer, pH 5.0) was flowed over the chip surface at a flow rate of 20 μL/min until the desired level bound protein was reached. […] Peptides were injected at variable concentrations at 20 μL/min flow rate and binding to the HER2 receptor immobilized on the chip was monitored in real time. […]

The test system of another data set is T6-17 cells. The method, then:
(See reference 46 below.) HER2-expressing transformed tumor cells (T6-17) were used for this purpose. […] Each value represents an average of at least four samples.
The MTT assay has been used for measuring cell growth as previously described in ref 446. Briefly, T6-17 cells were seeded in 96-well plates overnight in DMEM containing 10% FBS (1000 per well). T6-17 is derived from NIH3T3 by overexpressing the human HER2 receptor. Cells were cultured in 100 μL of fresh medium containing 1 μg/mL of peptides for 48 h. […] A total of 25 μL of MTT solution (5 mg/mL in PBS) was added to each well, and after 2 h of incubation at 37° C., 100 μA of the extraction buffer (20% w/v of SDS, 50% N,N-dimethyl formamide, pH 4.7) were added. After an overnight incubation at 37° C., the optical density at 600 rim was measured using an ELISA reader.

A short description of data set [3]: Peptide solubility in PBS buffer at 1 mg/mL. As to conditions: pH 7.4, 1 mg/mL. In kind it is physicochemical. The method, then:
These peptides could be readily dissolved in the PBS buffer, pH 7.4, at 1 mg/mL concentration without adjustment of pH.

The structures appear in SMILES notation. Like-named read-outs stand apart in the source and are kept apart here.

T1 sequence (P04626 23-652 limits assumed): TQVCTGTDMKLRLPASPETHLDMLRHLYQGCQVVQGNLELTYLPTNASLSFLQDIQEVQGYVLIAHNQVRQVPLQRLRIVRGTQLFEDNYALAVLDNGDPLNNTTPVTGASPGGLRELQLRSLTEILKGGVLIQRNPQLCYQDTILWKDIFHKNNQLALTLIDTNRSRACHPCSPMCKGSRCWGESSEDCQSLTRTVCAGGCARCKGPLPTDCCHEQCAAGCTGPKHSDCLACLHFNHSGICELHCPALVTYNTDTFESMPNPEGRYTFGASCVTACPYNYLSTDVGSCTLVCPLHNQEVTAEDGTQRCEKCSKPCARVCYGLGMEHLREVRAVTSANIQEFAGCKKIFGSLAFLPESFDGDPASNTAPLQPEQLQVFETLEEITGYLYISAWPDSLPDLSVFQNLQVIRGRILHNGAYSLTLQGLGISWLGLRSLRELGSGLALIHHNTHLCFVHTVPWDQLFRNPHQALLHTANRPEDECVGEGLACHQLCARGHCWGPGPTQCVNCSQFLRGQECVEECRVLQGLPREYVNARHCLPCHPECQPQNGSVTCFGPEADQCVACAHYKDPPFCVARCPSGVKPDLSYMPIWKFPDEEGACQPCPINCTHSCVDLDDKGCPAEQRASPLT

In the case of `CSCC[C@H](NC(=O)[C@H](Cc1ccc(O)cc1)NC(=O)[C@@H]1CSSC[C@H](NC(=O)[C@@H](N)Cc2ccccc2)C(=O)N[C@@H](CC(=O)O)C(=O)NCC(=O)N[C@@H](Cc2ccccc2)C(=O)N[C@@H](Cc2ccc(O)cc2)C(=O)N[C@@H](C)C(=O)N1)C(=O)N[C@@H](CC(=O)O)C(=O)N[C@H](C(N)=O)C(C)C` [Peptide 1], the koff at HER2 receptor [1] and on HER2 receptor [1] (read-out: binding to HER2 koff) was 0.000453 s⁻¹ in each case. Also, the kon on HER2 receptor [1] and at HER2 receptor [1] (read-out: binding to HER2 kon) was 1410 M⁻¹ s⁻¹ throughout. Moreover, the “receptor-binding affinity (in words)” value at HER2 receptor [1] (Biacore) is recorded as “submicromolar”. Moreover, the Kd (usually a measure of binding affinity in units of concentration) at HER2 receptor [1] (Biacore, immobilized HER2, 25° C., read-out: binding to HER2 KD) is 0.32 µM. Also, the IC50 (in general, the concentration that inhibits the measured activity by half) on HER2 receptor [2] was 3.4 µM. For the same molecule, the “% inhibition of T6-17 cell proliferation in MTT assays” value with T6-17 cells (1 μg/mL of peptides for 48 h) is 35.5%. Besides, the “inhibition of growth of T6-17 cells (in words)” value with T6-17 cells (0.01 to 10 μg/mL) is listed as “dose-dependently”. In addition, the solubility – broadly, the concentration that dissolves in the medium under given conditions – in data set [3] was below 1 mg/mL.
